Test results from US20120015923A1, “USE OF ANDROGRAPHOLIDE COMPOUNDS FOR TREATING INFLAMMATION AND AIRWAY DISORDERS” (NATIONAL UNIVERSITY OF SINGAPORE, priority 2009, published 2012).

Columns and labels:
[1] = system: inflammatory gene expression in lung tissues; assay: Pulmonary mRNA expression of inflammatory markers (RT-PCR); format: in vivo, BALB/c mice; conditions: lungs 24 hours after last OVA aerosol
Protocol: Lungs were isolated from the thoracic cavity 24 hours after the last OVA or saline challenge, and stored in RNAlater. The samples were first incubated at […] overnight for the RNAlater to permeate into the lung tissues to stabilize the RNA. The samples were then stored at −80° C. Before RNA isolation, lung tissues were thawed at […] They were then removed from the RNAlater and immersed in 1 ml Trizol solution. Then, homogenization was performed using a homogenizer (SilentCrusher M, Heidolph Elektro GmbH & Co., Kelheim, Genman). All samples were placed on ice to prevent RNA degradation. The homogenates were then centrifuged at 12,000 g for 10 min at 4° C. The clear RNA containing supernatant was then decanted, incubated for 5 min in room temperature, and 0.2 ml of chloroform was added. All tubes were shaken vigorously for 15 seconds and incubated at room temperature for 3 minutes before being centrifuged at 12,000 g for 15 min at 4° C. About 500 μl of the colourless upper aqueous layer containing RNA, was decanted. 0.5 ml of isopropanol was added and mixed for 30 sec, before being incubated at room temperature for 10 minutes. The tubes were then centrifuged at 12000 rpm for 15 min at 4° C. The supernatant was discarded and 1 ml of 75% ethanol was added to the RNA pellet. Centrifugation at 8500 rpm for 5 minutes at 4° C. was then performed to wash the pellet. The supernatant was again discarded and the washed RNA pellet was air-dried at room temperature for 10 min. The dried RNA pellet was dissolved in 100 μl of ribonuclease-free DEPC water and incubated at 55° C. for 10 minutes. The amount and purity of RNA present in the sample was quantified using the spectrophotometer (NanoDrop ND-1000 from Thermo Risher
Reverse transcription was performed to synthesize single-stranded complementary DNA (cDNA) templates from the RNA extracted. Volume containing 1 μg total RNA was calculated based on the nucleic acid concentration measured from the spectrophotometer, and was topped up to 20 μl with DEPC water. 10.58 μl of master mix was then added to each sample. Then, cDNA was synthesized from 1 μg of RNA using a multiwall thermal cycler (GeneAmp PCR system 2700 from Applied Biosystems, Foster City, Calif., USA) by bringing the reaction volume to 95° C. for 10 minutes and 42° C. for 30 minutes.
(§1) PCR amplifications were then performed using the multiwell thermal cycler on 1 μl cDNA template in a 25 μl reaction volume. The reaction volume contained 10.5 μl nuclease-free water, 0.5 μl forward primer (10 μM), 0.5 μl reverse primer (10 μM) and 12.5 μl 2×PCR master mix (50 units/ml TaqDNA polymerase, 400 μM dATP, 400 μM dGTP, 400 μM dCTP, 400 μM dTTP and 3 mM MgCl2).

[2] = system: IL-6, IL-8 and RANTES mRNA in normal human bronchial epithelial cells; assay: TNF-α-induced cytokine mRNA expression in normal human bronchial epithelial cells; format: cell-based; conditions: 10 ng/ml TNF-α for 12 hours; 30 μM
Protocol: (§2) To determine the effects of andrograhpolide on OVA-specific immune responses in lymphocytes, thoracic lymph node cells were grown in bronchial epithelial bulletkit medium (Cambrex BioScience, Walkersvile, Md., USA), supplemented with bovine pituitary extract (2 ml), hydrocortisone (0.5 ml), recombinant human EGF (0.5 ml), epinephrine (0.5 ml), transferrin (0.5 ml), insulin (0.5 ml), retinoic acid (0.5 ml), triiodothyronine (0.5 ml), gentamycin sulfate (50 μg/ml), and amphotericin B (50 ng/ml). The cells were incubated in 5% CO2 incubator at 37° C., and subcultured at 80% to 85% confluency. Cells were exposed to 200 μg/ml OVA for 72 hours. Concanavalin A (Con A, 10 μug/ml) was used as a positive control. Supernatants from parallel triplicate cultures were analyzed for cytokine levels by ELISA. Normal human bronchial epithelial cells were cultured in optimized bronchial epithelial bulletkit medium with supplements (Lonza, Basel, Switzerland). Cells were pretreated with 30 μM andrographolide or vehicle (0.01% DMSO) 4 hours before stimulation with 10 ng/ml tumor necrosis factor (TNF)-α. Total and nuclear proteins, and mRNA were extracted from cells at specified time intervals.
as §1

[3] = system: NF-κB signaling pathway in normal human bronchial epithelial cells; assay: TNF-α-induced NF-κB activation in normal human bronchial epithelial cells (immunoblotting, TransAM p65 ELISA); format: cell-based; conditions: 30 μM
Protocol: as §2
Lung and cell culture nuclear proteins ([…]) were isolated. Lysates were incubated on ice for 30 min before centrifugation (18,000 g for 5 min). The supernatants were collected, and protein concentrations were determined using a BCA protein assay kit. 28 μl of the protein measured were mixed with 7 μl 5× sample buffer and boiled at 95° C. for 5 min. 10% SDS-PAGE gel was set as known in the art. The gel was placed in a Trans-Blot tank (Bio-Rad Laboratories, Hercules, Calif.). 30 μl of the sample mixtures and Pre-stained SDS Page Marker (Bio-Rad Laboratories, Hercules, Calif.) were loaded into respective wells and ran at 100V for 2 hours. The proteins were then transferred to a PVDF membrane using a semi-dry transblotter (ATTO Corp, Tokyo, Japan). The PVDF membrane was blocked with 5% non-fat milk in Tween-20 Tris buffered saline (TTBS) for 2 hours and probed with various primary antibodies in 1% non-fat milk in TTBS (1:2,000 for anti-rabbit antibodies; 1:5,000 for anti-mouse antibodies; 1:10,000 for β-actin) overnight at 4° C. The PVDF was then washed with TTBS for 10 times (2-3 min each), and incubated in HRP- or AP-conjugated anti-mouse or anti-rabbit antibodies for 1 hour. The membrane was again washed with TTBS. For HRP-conjugated antibody, 1 ml each of HRP substrate 1 and substrate 2 were added onto the membrane. For AP-conjugated antibody, 7.5 ml of AP substrates (300 μl AP 25×Buffer, 75 μl Reagent A, 75 μl Reagent B, 7.5 ml water) was added per gel. The data was then developed in the dark on hyperfilms using an ECL reagent. Immunoblots were probed with anti-p65, anti-phospho-p65 (Ser536), and anti-TATA binding protein (TBP, Abcam, Cambridge, UK).
Nuclear proteins were also analyzed for NF-κB DNA-binding activity using the TransAM p65 transcription factor assay kit (Active Motif, Carlsbad, Calif.).

[4] = 10 ng/ml TNF-α for 5, 15 and 30 minutes

C=C1CC[C@@H]2[C@](C)(CO)[C@H](O)CC[C@@]2(C)[C@@H]1C/C=C1/C(=O)OC[C@H]1O [Andrographolide]
attenuated: inducible nitric oxide synthase mRNA expression in lung tissues [1] | E-selectin mRNA expression in lung tissues ([1]; DDAG 1 mg/kg) | Muc5ac mRNA expression in lung tissues ([1]; DDAG 1 mg/kg)
blocked: TNF-α-induced IκBα degradation [3, 4] | TNF-α-induced p65 subunit of NF-κB phosphorylation [3, 4] | TNF-α-induced phosphorylation of IKKβ [3, 4] | TNF-α-induced p65 DNA-binding activity ([3]; TNF-α for 30 minutes) | TNF-α-induced p65 nuclear translocation ([3]; TNF-α for 30 minutes)
markedly down-regulated: AMCase mRNA expression in lung tissues ([1]; DDAG 1 mg/kg) | YKL-40 mRNA expression in lung tissues ([1]; DDAG 1 mg/kg) | Ym2 mRNA expression in lung tissues ([1]; DDAG 1 mg/kg)
noticeably blocked: TNF-α-induced up-regulation of IL-6 mRNA expression [2] | TNF-α-induced up-regulation of IL-8 mRNA expression [2] | TNF-α-induced up-regulation of RANTES mRNA expression [2]
inhibition: ICAM-1 gene expression in lung [1] | VCAM-1 gene expression in lung [1] | YM1 gene expression in lung [1] | IκB phosphorylation ([3]; 10 ng/ml TNF-α)

C=C1CCC2C(C)(CO)C(O)CCC2(C)C1C=CC1=CCOC1=O (centres unmarked) [DDAG, 14-Deoxy-11,12-didehydroandrographolide]
markedly abated: TNF-α-induced p65 DNA-binding ([3]; 10 ng/ml TNF-α for 5 minutes) | TNF-α-induced p65 nuclear translocation ([3]; 10 ng/ml TNF-α for 5 minutes)
strongly suppressed: TNF-α-induced up-regulation of RANTES mRNA expression [2]
strong suppression: AMCase mRNA expression in lung tissues ([1]; DDAG 1 mg/kg) | COX2 mRNA expression in lung tissues ([1]; DDAG 1 mg/kg) | E-selectin mRNA expression in lung tissues ([1]; DDAG 1 mg/kg) | IL-17 mRNA expression in lung tissues ([1]; DDAG 1 mg/kg) | IL-33 mRNA expression in lung tissues ([1]; DDAG 1 mg/kg) | Muc5ac mRNA expression in lung tissues ([1]; DDAG 1 mg/kg) | YKL-40 mRNA expression in lung tissues ([1]; DDAG 1 mg/kg) | Ym2 mRNA expression in lung tissues ([1]; DDAG 1 mg/kg)
